What was measured:
[1] = target: T1, phosphoenolpyruvate carboxylase yielded by Acetobacter hansenii IFO 14820 (ATCC 35959) (Novacetimonas hansenii, UniProt A0ABQ0SBC7)
T1 sequence (A0ABQ0SBC7 1-933): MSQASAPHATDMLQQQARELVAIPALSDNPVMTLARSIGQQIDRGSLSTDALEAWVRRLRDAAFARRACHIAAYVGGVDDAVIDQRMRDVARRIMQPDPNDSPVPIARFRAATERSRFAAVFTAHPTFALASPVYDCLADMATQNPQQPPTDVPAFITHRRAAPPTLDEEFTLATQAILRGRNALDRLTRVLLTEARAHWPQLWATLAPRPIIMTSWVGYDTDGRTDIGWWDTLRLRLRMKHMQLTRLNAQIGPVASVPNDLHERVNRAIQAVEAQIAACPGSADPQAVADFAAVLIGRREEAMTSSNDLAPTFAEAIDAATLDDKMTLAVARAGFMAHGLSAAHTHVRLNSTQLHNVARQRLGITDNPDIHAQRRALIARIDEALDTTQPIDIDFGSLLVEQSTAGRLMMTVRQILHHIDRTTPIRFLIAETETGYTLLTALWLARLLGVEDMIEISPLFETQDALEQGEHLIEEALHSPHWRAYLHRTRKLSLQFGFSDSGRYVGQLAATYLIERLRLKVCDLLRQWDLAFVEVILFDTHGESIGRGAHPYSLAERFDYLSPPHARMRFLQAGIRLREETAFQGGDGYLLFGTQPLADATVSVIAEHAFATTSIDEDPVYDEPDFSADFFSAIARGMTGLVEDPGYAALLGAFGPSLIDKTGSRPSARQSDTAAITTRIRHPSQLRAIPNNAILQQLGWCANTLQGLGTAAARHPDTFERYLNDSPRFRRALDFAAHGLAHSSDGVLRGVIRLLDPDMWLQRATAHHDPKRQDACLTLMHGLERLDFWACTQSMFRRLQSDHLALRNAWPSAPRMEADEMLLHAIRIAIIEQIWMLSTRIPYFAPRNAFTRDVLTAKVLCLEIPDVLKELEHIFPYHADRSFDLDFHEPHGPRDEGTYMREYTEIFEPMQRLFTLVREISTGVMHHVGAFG
Method: A reaction mixture (2.9 ml) containing 50 mM Tris-HCl, 10 mM Na2 CO3, 3.2 mM phosphoenolpyruvic acid, 100 mM MgSO4, 0.14 mM NADH and 50 U/ml malate dehydrogenase is prepared in a cuvette (d=1 cm) and preheated at 30° C. for about 5 minutes. An enzyme solution (0.1 ml) is added thereto and the mixture is gently stirred. A change in absorbance at 340 nm is recorded for 2-3 minutes with a spectrophotometer using water adjusted to 30° C. as a control, and change in absorbance per minute is calculated from the initial linear portion thereof (ΔOD test). A blank test is performed by using 50 mM phosphate buffer (pH 7.0) in place of the enzyme solution and following the steps to determine changes in absorbance per minute (ΔOD blank).

[2] = substrate: C=C(OP(=O)(O)O)C(=O)O; assay: purified protein, by the assay type; settings: pH 7.0; 30.0 °C

Nc1ncnc2c1ncn2[C@@H]1O[C@H](COP(=O)(O)OP(=O)(O)O)[C@@H](O)[C@H]1O [ADP]
Inhibition by ADP [1]: Not inhibited

CC(=O)SCCNC(=O)CCNC(=O)[C@H](O)C(C)(C)COP(=O)(O)OP(=O)(O)OC[C@H]1O[C@@H](n2cnc3c(N)ncnc32)[C@H](O)[C@@H]1OP(=O)(O)O [acetyl CoA]
Activation by acetyl CoA [1]: Not activated

B1: phosphoenolpyruvate carboxylase yielded by Acetobacter hansenii IFO 14820 (ATCC 35959) (Novacetimonas hansenii) (protein)
chain: MSQASAPHATDMLQQQARELVAIPALSDNPVMTLARSIGQQIDRGSLSTDALEAWVRRLRDAAFARRACHIAAYVGGVDDAVIDQRMRDVARRIMQPDPNDSPVPIARFRAATERSRFAAVFTAHPTFALASPVYDCLADMATQNPQQPPTDVPAFITHRRAAPPTLDEEFTLATQAILRGRNALDRLTRVLLTEARAHWPQLWATLAPRPIIMTSWVGYDTDGRTDIGWWDTLRLRLRMKHMQLTRLNAQIGPVASVPNDLHERVNRAIQAVEAQIAACPGSADPQAVADFAAVLIGRREEAMTSSNDLAPTFAEAIDAATLDDKMTLAVARAGFMAHGLSAAHTHVRLNSTQLHNVARQRLGITDNPDIHAQRRALIARIDEALDTTQPIDIDFGSLLVEQSTAGRLMMTVRQILHHIDRTTPIRFLIAETETGYTLLTALWLARLLGVEDMIEISPLFETQDALEQGEHLIEEALHSPHWRAYLHRTRKLSLQFGFSDSGRYVGQLAATYLIERLRLKVCDLLRQWDLAFVEVILFDTHGESIGRGAHPYSLAERFDYLSPPHARMRFLQAGIRLREETAFQGGDGYLLFGTQPLADATVSVIAEHAFATTSIDEDPVYDEPDFSADFFSAIARGMTGLVEDPGYAALLGAFGPSLIDKTGSRPSARQSDTAAITTRIRHPSQLRAIPNNAILQQLGWCANTLQGLGTAAARHPDTFERYLNDSPRFRRALDFAAHGLAHSSDGVLRGVIRLLDPDMWLQRATAHHDPKRQDACLTLMHGLERLDFWACTQSMFRRLQSDHLALRNAWPSAPRMEADEMLLHAIRIAIIEQIWMLSTRIPYFAPRNAFTRDVLTAKVLCLEIPDVLKELEHIFPYHADRSFDLDFHEPHGPRDEGTYMREYTEIFEPMQRLFTLVREISTGVMHHVGAFG
Km [2]: 210 µM

From US5624812A, “Method for measuring carbon dioxide and reagent therefor” (Toyo Boseki Kabushiki Kaisha, priority 1993, dated 1997)
